Test results: ChEMBL document CHEMBL3832068, “DailyMed|setid=9ddd37f9-299e-4c98-91ed-deeb72c63b00 | GRIS-PEG - griseofulvin tablet, film coated|State of Florida DOH Central Pharmacy”

Assays:
[1] = (§1) Mean pharmacokinetic parameters for Griseofulvin following single dose administration of unaltered 250 mg ultramicrocrystalline Griseofulvin tablets, with or without applesauce, to 24 healthy volunteers; format: ADME, organism-based; parameters: dose 250 mg, route oral; conditions: human, in vivo, dietary status Fasting, dosed compound id 34, dosed compound name GRISEOFULVIN, gender male and female, regimen Single dose, tissue Plasma
[2] = test system: Homo sapiens; experiment: as §1; format: ADME, organism-based; parameters: dose 250 mg, route oral; conditions: in vivo, po, dietary status Fasting, dosed compound id 34, dosed compound name GRISEOFULVIN, gender male and female, regimen Single dose, tissue Plasma

## COC1=CC(=O)C[C@@H](C)[C@]12Oc1c(Cl)c(OC)cc(OC)c1C2=O [GRISEOFULVIN]
[1]; po, 250 mg
  AUC: 8620 ng·h/mL
  Cmax: 601 ng/mL
[1]; dose 250 mg, route oral
  Tmax: 4.04 h
[2]; dose 250 mg
  Tmax: 3.08 h
[2]
  AUC: 9023.71 ng·h/mL
  Cmax: 672.61 ng/mL
